For this assay, the system named is C. albicans biofilms. Kind of assay: Susceptibility testing of preformed C. albicans biofilms in CaBChip (FUN 1 fluorescence). The class given is cell-based, Candida albicans strain SC5314. The conditions noted are these: 24 h preformed biofilms on CaBChip, 24 h drug exposure; for SMIC50 / SMIC80: FUN 1 staining. The protocol: A four-factor, two-level factorial design was performed using MINITAB (Minitab Solutions Inc., State College, Pa.) and DESIGN EXPERT (Stat-Ease Inc., Minneapolis, Minn.) software to obtain optimal conditions of media concentration, seeding density, collagen concentration and PSMA coating concentration for wash-resistant biofilm growth on the CaBChip. The response (output) metrics were true biofilm yield and robust attachment, measured using microarray scanner and light microscope. For preparation of inocula for printing and biofilm formation in the CaBChip, cells harvested from overnight YPD cultures were washed twice in sterile phosphate buffered saline (PBS; 10 mM phosphate buffer, 2.7 mM potassium chloride, 137 mM sodium chloride (pH 7.4) (Sigma) by centrifugation at 3000 g. The cells were then resuspended in Reconstruction buffer (0.2N NaOH solution with 2.2% (wt/vol) Sodium Bicarbonate and 4.8% (wt/vol) HEPES). One hundred fold dilutions of the suspended cells were prepared and counted using a hemocytometer on a bright field microscope. Following count, a suspension of cells was prepared in reconstruction buffer at a cell density of 5×10^7 cells/mL, which was diluted ten times by addition of 10×RPMI-1640 supplemented with L-glutamine and buffered with morpholinepropanesulfonic acid (Angus Buffers and Chemicals, Niagara Falls, N.Y.) containing collagen (1.8 mg/ml) (Type 1 from rat tail, BD Biosciences, Bedford, Mass.), to give a final concentration of cells of […]. The suspension containing yeast cells, collagen and media was printed (50 nL per spot) on the functionalized PSMA-coated glass slides using a microarray spotter (Omnigrid Micro, Digilab Inc., Holliston, Mass.). Printing was carried out by non-contact deposition using conically tapered 190μ orifice ceramic tips (Digilab). The resulting spots were approximately 700μ in diameter, spaced 1.2 mm apart; spots were printed in an array of 48 rows and 16 columns. In a standard print nm, the tips were primed, rinsed in running water and vacuum dried twice after each loading and printing step. The cell suspension was kept on ice to prevent the gelation of collagen before printing and agitated gently just prior to placement on the printing robot to ensure a uniformly mixed cell suspension. A relative humidity of 97% was maintained during printing to prevent the drying of the biofilm spots. All microarray operations such as aspiration, dispensing, priming, printing and spatial distribution of array were controlled by AxSys program (Digilab). All surfaces, including the source plate station, wash and vacuum station, vacuum slide platter and printing chamber were sterilized by wiping with 70% isopropanol. In our experience, these procedures ensure that there is no detectable contamination of wells in the plates or of spots on the microarray. After printing, the slides were placed inside humidifier chambers (Arraylt Corporation, Sunnyvale, Calif.), which were placed inside a 37 C incubator over different periods of time to allow for biofilm formation.
FUN 1 [2-chloro-4-(2,3-dihydro-3-methyl-(benzo-1,3-thiazol-2-yl)-methylidene)-1-phenylquinolinium iodide] (Invitrogen Corp., Carlsbad, Calif.) was used to stain and determine viability (levels of metabolic activity) of C. albicans cells within the biofilms formed in the chips. This membrane-permeable fluorescent dye is internalized and processed by metabolically active fungal cells, and has excitation and emission spectra that are compatible with the sets of lasers and filters installed in most microarray scanners. Briefly, the CaBChip was stained with 0.5 tM FUN 1, by simply dunking the entire CaBChip in a staining jar, and incubated in the dark at 37° C. for 30 min. Following incubation, the chip was washed three times by dunking in PBS in order to remove excess stain. The slides were then air-dried and scanned in a microarray scanner (Genepix Personal4100A, Axon Instruments, Union City, Calif.). […]

The source of these data is US10465227B2, “Microbial testing devices, methods of making microbial testing devices and methods of identifying novel antimicrobial drug candidates” (BOARD OF REGENTS, THE UNIVERSITY OF TEXAS SYSTEM, priority 2010, dated 2019).

Bounds are passed on as bounds.

`OC(Cn1cncn1)(Cn1cncn1)c1ccc(F)cc1F` [fluconazole]: the “susceptibility of biofilms formed on CaBChip (in words)” value is given as “intrinsically resistant to fluconazole”, the SMIC50 is on record as > 1,024 μg/ml and the SMIC80 is on record as > 1,024 μg/ml. In addition, the IC50 (Candida albicans, FUN 1 fluorescence, Hill equation fit, read-out: calculated IC50) is > 1020 µg/mL.

As for `C[C@@H]1[C@H](O)[C@@H](C)/C=C/C=C/C=C/C=C/C=C/C=C/C=C/[C@H](O[C@@H]2O[C@H](C)[C@@H](O)[C@H](N)[C@@H]2O)C[C@@H]2O[C@](O)(C[C@@H](O)C[C@@H](O)[C@H](O)CC[C@@H](O)C[C@@H](O)CC(=O)O[C@H]1C)C[C@H](O)[C@H]2C(=O)O` [amphotericin B], the “susceptibility of biofilms formed on CaBChip (in words)” value is “effective against biofilms formed on CaBChip, but only at relatively high concentrations”; the SMIC50 is 0.5 µg/mL; the SMIC80 was 1 µg/mL. Further, the “calculated IC50” value (FUN 1 fluorescence, Hill equation fit) was 0.27 ± 0.04 µg/mL.
